This is an account of results in patent publication US7022680B2, “Inhibitors of ADP-ribosyl transferases, cyclases, and hydrolases” (Albert Einstein College of Medicine of Yeshiva University, priority 2002, dated 2006).

The structures appear in SMILES notation. “And” between values parts separate entries of the source, which are not always exact repeats. Identical values can stand only once.

For data set [1], the target named is T1, human CD38 (Homo sapiens, UniProt P28907).
T1 sequence (P28907 43-300 limits assumed): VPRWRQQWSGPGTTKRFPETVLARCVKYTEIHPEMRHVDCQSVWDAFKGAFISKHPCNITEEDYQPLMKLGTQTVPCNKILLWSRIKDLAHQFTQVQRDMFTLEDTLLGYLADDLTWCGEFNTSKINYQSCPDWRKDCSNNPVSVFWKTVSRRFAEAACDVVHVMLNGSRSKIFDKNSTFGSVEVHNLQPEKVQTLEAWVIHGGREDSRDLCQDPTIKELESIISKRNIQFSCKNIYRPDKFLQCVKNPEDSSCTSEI
Particulars: CD38 preincubated with inhibitor 2; saturating nicotinamide.
Protocol: 10 mL CD38 (1 μM) in K2PO4H was incubated with 2 (10 μM) for 30 minutes at room temperature and subsequently placed on ice. […] To a two syringe Applied Photophysics spectrophotometer in fluorescence mode was added inhibited enzyme to one syringe and NGD^+ solution to the other. Fluorescence was used to monitor cGDPR formation and the total fluorescence curves fit using the activity recovery equation F(t)=vt+(b−v) (1−exp(−kt))/k+F0 where k is the observed rate constant, b is the initial rate, v is the final rate and F0 is the initial absorbance.
A stopped flow, two syringe fitted spectrophotometer was used to perform the experiments. The fluorescence of cGDPR was measured as a function of time to generate curves that contain an exponential and a linear phase prior to substrate exhaustion. These curves were fit to the equation Ft=vft+(vi−vf)(1−exp (−kt))/k+F0 as previously defined.

The target of data set [2] is T1, human CD38. In words: Radiochemical labeling of CD38 by [2'-3H] inhibitor (gel filtration, scintillation counting). The data set is classed as binding. As to conditions: 9 μM inhibitor, 1.2 μM CD38 monomer, pH 7.5, 25° C. Details: The soluble domain of human CD38 catalyzes the conversion of NAD^+ to cyclic-ADP-ribose. As to the method: Radiochemical measurement of inhibitor binding. […] Inhibitor at 9 μM with specific radioactivity of 866 cpm/nmol, was incubated with 1.2 μM CD38 (monomer) in 1 mL 50 mM potassium phosphate (pH 7.5). The reactions were started by enzyme addition and quenched by freezing with a dry ice/acetone bath at 30, 60 90, 120, 250, 500, and 1000 s. Cooled (0° C.) gel filtration columns were used to separate protein with cooled (0° C.) 10 mM potassium phosphate as eluant. The frozen fraction were quickly thawed, applied to these columns and fractions collected in 1 mL volumes over the course of several minutes. Scintillation fluid (9 mL) was then added to each 1 mL fraction and samples counted. […] The observed radioactivity was fit using the equation A(t)=A0(1−exp(−kt))+B. where A0 is activity at reaction completion, k is the observed pseudo-first order rate constant and B is the activity of the blank.
Titration of Enzyme with [2′-^3H]Inhibitor. CD38 inactivation was accomplished using a radiolabeled inhibitor to assess inhibitor interactions with the enzyme independent from inhibition of the catalytic activity. This method allows the determination of the stoichiometry of covalent labeling, and detects cooperativity at multiple sites. […] (FIG. 8) within reasonable agreement with the rate constant for inactivation in kinetic assays of inhibition (kon=0.0042 s^−1 at 19° C.). […]
On the technique in general: In gel filtration, larger molecules generally elute earlier.

Data set [3] addresses T1, human CD38. Put plainly: Competitive and slow-onset inhibition of CD38-catalyzed conversion of NGD+ to cGDPR (295 nm absorbance). As to conditions: even at millimolar concentrations (data not shown). Details: The soluble domain of human CD38 catalyzes the conversion of NAD^+ to cyclic-ADP-ribose. The class given is biochemical. As to the method: Determination of Ki and kon by competitive method. To 1 mL solutions of 50 mM potassium phosphate pH 7.2 and 100 μM NGD^+ containing, 50, 25, 12.5, and 6.25 and 0 μM inhibitor 1 was added 2 μL of 7 μM CD38. Reaction progress upon initiation by enzyme addition was monitored by measurement of 295 nm absorbance. The initial slopes were used to determine the Ki value, and all points of the experiment were fit to the equation A(t)=vt+(b−v)(1−exp(−kt))/k+A0 where k is the observed rate constant, b is the initial rate, v is the final rate and A0 is the initial absorbance was used to evaluate kon.
Determination of Competitive Inhibition by Initial Rates: The inhibitors 1–3 were evaluated for inhibition of CD38 enzymatic activity using a spectrophotometric assay. CD38 catalyzes the conversion of NGD^+ to cyclic-GDP ribose (cGDPR, Scheme 4) and product formation can be monitored by 295 nm absorbance measurement. […] A similar reaction containing 40 μM NGD^+ at several concentrations of 2 was also performed (FIG. 3).
Slow Phase Inhibition. […] This slow phase was not due to substrate depletion and was attributable to a kinetic process leading to progressive inhibition of the enzyme. The “slow-onset” absorbance curves could be fit using the equation At=vit+(vi−vf)(1−exp(−kt))/k+A0 where At is absorbance, vi is initial velocity, vf is final velocity, t is time in s, k is the rate of the slow onset process and A0 is absorbance of the sample at initial time. These fits are shown by the solid lines in FIG. 2 and FIG. 3. The rate constant for the slow phase could be obtained from the average value of k determined from the separate fits. The value of k for 1 was determined to be 0.0042±0.001 s^−1 and the value of k for 2 was determined to be 0.0083±0.002 s^−1. The parameter k is defined as kon in Scheme 5. [drawing 19]

The nature of data set [4]: Solution hydrolysis of the inhibitor. The class given is physicochemical. As to conditions: 10 mM potassium phosphate, pH 6.5, 25° C. From the text:
Without being bound to any particular mechanism, it is believed that the electron-contributing moiety on A stabilizes the compounds of the invention such that they are less susceptible to hydrolysis from the rest of the compound. For example, the compound β-1′-5-methyl-nicotinamide-2′-deoxyribose (established as an effective inhibitor of CD38 in the Example) was compared with β-1′-nicotinamide-2′-deoxyribose in its ability to resist solution hydrolysis. […] This difference in chemical stability means that β-1′-nicotinamide-2′-deoxyribose is 50% depleted from solution in 2 hours, whereas β-1′-5-methyl-nicotinamide-2′-deoxyribose is not hydrolyzed by 50% until 12 hours. This improved chemical stability improves the value of the compound, since it is available for action for longer periods of time in biological systems due to resistance to hydrolytic breakdown.

The target of data set [5] is T1, human CD38. Put plainly: Off-rate / recovery of inhibited CD38 in excess NGD+. As to conditions: inhibited CD38 added to excess NGD+, 19° C.; for koff: read-out: koff, rate constant of recovery from inhibition. The class given is biochemical. Details: The soluble domain of human CD38 catalyzes the conversion of NAD^+ to cyclic-ADP-ribose. Here is the method: Off-Rate Measurement. 500 nM CD38 in 50 mM potassium phosphate pH 7.2 was incubated with 15 μM inhibitor for 30 min at room temperature. 5 μL of the enzyme inhibitor solution was added to a cuvette containing 1 mL reaction of 50 mM potassium phosphate pH 7.5 containing 300 μM NGD^+ pre-chilled to 19° C. Production of […] was determined by monitoring 295 nm absorbance. The absorbance was fit to the equation A(t)=vt+(b−v)(1−exp(−kt))/k+A0 where A(t) is the absorbance, k is the rate constant of recovery, b is the initial rate, v is the final rate and A0 is the initial absorbance. A control lacking inhibitor but in all other respects identical was also run.
Recovery from Inhibition. […] The inhibitor off-rate provides the final parameter in the equation koff/kon*Ki=Ki(total) which is valid for the kinetic scheme of slow-onset inhibition shown in Scheme 5. This rate was obtained by a recovery protocol in which inhibited CD38 enzyme (by either 1 or 2) was added to a 200 μM solution of NGD^+. The solution 295 nm absorbance is monitored spectrophotometrically to assay conversion of NGD^+ to cGDPR as a consequence of regain of CD38 catlytic activity. […] The absorbance curves with the same equation used for slow-onset: At=vit+(vi−vf)(1−exp(−kt))/k+A0 where At is absorbance, vi is initial velocity, vf is final velocity, t is time in s, k is the rate of the recovery rate constant and A0 is the absorbance of the sample at initial time. The rate constant for the recovery phase was obtained from the average value of k determined from the separate fits. The value of koff for 1 was determined to be 1.5×10^−5 s^−1 and for 2 was determined to be 2.5×10^−5 S^−1.

The target of data set [6] is T1, human CD38. In words: CD38-catalyzed base exchange of 2 to 1 with nicotinamide, HPLC. The data set is classed as biochemical. Also noted: The soluble domain of human CD38 catalyzes the conversion of NAD^+ to cyclic-ADP-ribose. Particulars: 75 μM 2, 1 μM CD38, nicotinamide, 19° C. Here is the method: Base-exchange reaction. […] These reactions were run separately in autosampler tubes held at 19° C. in a temperature regulated autosampler and assayed by multiinjection HPLC using 5 mM K2PO4H pH 5.0 and 2.5% MeOH as eluant. The quantity of 2 reacted and the quantity of 1 formed versus time was determined by integrations of the peaks for 1 and 2 with comparison to standards.

In the next data set the target is T2, CD38 (Homo sapiens, UniProt P28907).
T2 sequence (P28907 1-300): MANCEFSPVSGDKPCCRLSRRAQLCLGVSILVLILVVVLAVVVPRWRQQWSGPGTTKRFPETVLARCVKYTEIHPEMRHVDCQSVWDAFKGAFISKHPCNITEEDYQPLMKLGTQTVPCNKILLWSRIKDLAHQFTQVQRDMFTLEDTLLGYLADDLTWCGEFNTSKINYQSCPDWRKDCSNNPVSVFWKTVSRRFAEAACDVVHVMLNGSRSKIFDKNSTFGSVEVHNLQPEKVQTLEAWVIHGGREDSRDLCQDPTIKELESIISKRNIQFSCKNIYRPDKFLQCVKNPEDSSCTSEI
Particulars: 37° C.; cited from earlier work.

In the case of `NC(=O)c1cccnc1` [nicotinamide], the “maximum rate of rescue (kbase)” value on human CD38 [1] is 0.023 s⁻¹ and 0.024 s⁻¹. As for `[3H]C1[C@H]([n+]2cccc(C(N)=O)c2)O[C@H](CO)[C@H]1O` (stereo partly shown) [[2′-^3H]-1, [2′-^3H]Nicotinamide deoxyriboside], the “rate constant of radiochemical labeling of CD38 (kchem)” value at human CD38 [2] was found to be 0.01 s⁻¹. Take `Cc1cc(C(N)=O)c[n+](C2CC(O)C(CO)O2)c1` (single isomer, unassigned) [α isomer of 2]: on human CD38 [3], the “inhibition of CD38 conversion of NGD+ to cGDPR” value (“inhibition … to cGDPR” for short) is listed as “did not inhibit”.

A word on the koff: it is the first-order rate constant of dissociation. Regarding `Cc1cc(C(N)=O)c[n+]([C@H]2C[C@H](O)[C@@H](CO)O2)c1` [inhibitor 2, 5-methyl-nicotinamide-2′-deoxyriboside], in data set [4], the “time until 50% depleted from solution by hydrolysis” value was determined as 12 h. At human CD38 [5], the “koff, rate constant of recovery from inhibition” value stood at 2.5e-05 s⁻¹ and the koff was around 2e-05 s⁻¹. Moreover, at human CD38 [6], the “kcat of base exchange (2 to 1)” value is 0.007 s⁻¹. As for `NC(=O)c1ccc[n+](C2CC(O)C(CO)O2)c1` (single isomer, unassigned) [α isomer of 1], at human CD38 [3], the “inhibition … to cGDPR” value was “did not inhibit”. As to `NC(=O)c1ccc[n+]([C@@H]2O[C@H](COP(=O)(O)O)[C@@H](O)[C@H]2O)c1` [NMN^+], on CD38, the “ratio of the rates of turnover of CD38 covalent intermediates, NMN+ versus ara-F-NMN+” value is recorded as ~10^7. As to `NC(=O)c1ccc[n+]([C@H]2C[C@H](O)[C@@H](CO)O2)c1` [inhibitor 1, nicotinamide-2′-deoxyriboside], in data set [4], the “time until 50% depleted from solution by hydrolysis” value was found to be 2 h. At human CD38 [5], the “koff, rate constant of recovery from inhibition” value was found to be 1.5e-05 s⁻¹ and the koff is around 2e-05 s⁻¹. `OC[C@H]1O[C@@H]([n+]2ccccc2)C[C@@H]1O` [inhibitor 3, pyridyl-2′-deoxyriboside]: on human CD38 [3], the “inhibition … to cGDPR” value was “did not inhibit”.
